Data on three sequences can be found in PMC7440915, “Discovery of surrogate agonists for visceral fat Treg cells that modulate metabolic indices in vivo” (eLife, 2020).

The target of one assay is vTreg53 (Fat) TCR. Nature of the assay: Surface plasmon resonance, pMHC/Fat TCR affinity. Type of assay: binding, murine. The note with it: 25°C; for Kd: Biacore T100, biotinylated pMHC immobilized on SA chip 200 to 600 RU, HBS-P+, equilibrium, representative of 2 experiments. As for the experimental part: (§1) Figure 3. Identification of robust vTreg53 TCR agonists. Single-point mutants based on the Fat7 (A) or Fat15 (B) peptides were used to stimulate Fat-TCR transduced Jurkat T cells. Data shown are mean fluorescence intensity for CD69 up-regulation following overnight stimulation with the indicated peptides at 100 µM. (C) Potent SPs based on Fat15. Single-residue mutations from the Fat15 are shown in red. Anchor positions are shown in grey and potential TCR-facing positions are shown in green. A peptide titration of single- and double-point mutants from the Fat15 SP show up to ~4- (D; CD69) or ~8 fold (E; CD25) increase in Emax. (F) Surface plasmon resonance for Fat7, Fat15, Fat1562 and Fat2564 was used to determine the pMHC/Fat TCR affinity. All biotinylated pMHC were purified by SEC and immobilized in a streptavidin-coated SPR sensor chip from 200 up to 600 RU. Data are mean ± SD from n = 2 (A, D, E) or 3 (B) biological replicates from 1 representative of 3 independent experiments. Data shown in (F) is representative of 2 independent experiments. Figure 3—figure supplement 1. In vitro peptide stimulation of the vTreg53 TCR cells. (A) Expression of wild-type Ab MHC in stably transduced K562 cells. (B) Expression of vTreg53 TCR in stably transduced Jurkat T cells (TCRαβ-/-). (C) Fraction of CD25+/CD69+ cells following overnight stimulation with Fat mimotopes at the indicated concentrations. (D) Peptide-A^b - streptavidin PE (pAb -SAPE) titration of vTreg53 transduced Jurkat T cells. Cells were stained with 250 nM of pA^b-SAPE tetramer for 1 hr.
High Five cells (Tni; Expression Systems) were grown in Insect X-press media (Lonza) or ESF 921 media (Expression Systems) with a final concentration of 10 mg/L of gentamicin sulfate (ThermoFisher) at 27°C at atmospheric CO2. SF9 cells are grown in SF900-III or -II serum-free media (ThermoFisher) with 10% FBS and final concentration 10 mg/L of gentamicin sulfate and 2 mM glutamax at 27°C at atmospheric CO2. P1 or P2 virus was used to infect volumes of 1–3 L of Hi5 cells at ∼2 × 10^6 cells/ml. Supernatant was harvested 2–3 days post-infection and spun down at 8000 rpm for 15 min. The supernatant containing expressed protein was treated to 100 mM Tris pH 8.0, 1 mM NiCl2, and 5 mM CaCl2 to precipitate contaminants. The supernatant and precipitate mixture was spun down at 8000 rpm for 20 min at 4°C to remove precipitate. The supernatant was incubated with Ni-NTA resin (QIAGEN) for >3 hr at room temperature. Ni-NTA beads were collected and washed in a Buchner funnel with 20 mM imidazole in 1 x HBS pH 7.2 and eluted with 200 mM imidazole in 1x HBS pH 7.2. Protein was concentrated in a 10 kDa filter (Millipore, UFC903024) to ~1 mL. When appropriate, protein was biotinylated with BirA ligase, 100 μM biotin, 40 mM Bicine pH 8.3, 10 mM ATP, and 10 mM Magnesium Acetate at 4°C overnight. All proteins were further purified by size-exclusion chromatography using Superdex Increase S200 or S75, as appropriate (GE Healthcare). All proteins for in vivo studies were cleared of endotoxin. Final endotoxin levels were determined using a chromogenic endotoxin quantitation kit (Thermo Fisher) and never greater than 1 Endotoxin Unit/mg of purified protein.
A GE Biacore T100 was used to measure the KD by equilibrium methods. Approximately 200 resonance units (RU) of human CD45, PD-1 or mouse PD-1 was captured on a SA-chip (GE Healthcare), including a reference channel of an unrelated protein. SPR runs were performed in HBS-P+ (GE Healthcare). All measurements were made with 2-fold serial dilutions using 45–60 s association (at 30 μl/min) followed by >240 s dissociation (30 μl/min) at 25°C. Regeneration was performed using HBS-P+, 2 M MgCl2 or 0.1 M Glycine, pH 3.1 for 15–20 s at 50 μl/min. Measurement of titrations at equilibrium were used to determine the KD using Biacore Analysis Software (GE Healthcare). All measurements were repeated twice.

Assay [1] concerns vTreg53 TCR (transduced Jurkat T cells). Nature of the assay: CD69/CD25 up-regulation on vTreg53 TCR transduced Jurkat T cells with peptide-pulsed K562-A^b cells. Type of assay: cell-based, Homo sapiens (cells); murine TCR. The note with it: for CD25 Emax, fold increase over Fat15: CD25, peptide titration, Figure 3E; for CD69 Emax, fold increase over Fat15: CD69, peptide titration, Figure 3D; for EC50: peptide titration, CD69 (Figure 3D), overnight, mean ± SD from n = 2 biological replicates, 1 representative of 3 experiments. As for the experimental part:
as §1
Cell lines were kept in a humidified incubator at 37°C with 5% CO2 unless otherwise denoted. Jurkat T cells (derived from acute T cell leukemia ATCC TIB-152) and K562 cells (ATCC CCL-243) were cultured in RPMI supplemented with 2 mM glutamax (Invitrogen), 10% FBS (Sigma),10 mM HEPES pH 8.0 (ThermoFisher), 1 mM Sodium Pyruvate (Gibco) and 50 U/ml penicillin and streptomycin (ThermoFisher). Validation of T cell lines was performed by staining with known markers pre- and post- transfection or transduction. HEK293T (Lenti-X; Takara Bio USA, #632180) cells (female derived kidney cell line) were grown in DMEM complete media (ThermoFisher) supplemented with 10% FBS, 2 mM L-glutamine, and 50 U/ml of penicillin and streptomycin. Cells were tested for mycoplasma contamination using the MycoAlert Mycoplasma Detection kit (Lonza) and found to be mycoplasma-negative. For peptide assays, Jurkat T cells were rested overnight or for 2–3 hr in fresh RPMI complete. Cells were co-cultured for 16 to 48 hr with surrogate APCs: K562 transduced with A^b. After overnight incubation, cells were washed in MACS buffer and stained with anti-TCR, A^b, CD69 and CD25. EBY100 yeast cells were cultured in sterile filtered standard YPD (Bacto Peptone, glucose and yeast extract). Transformed yeast were grown in SDCAA (yeast nitrogen base, casamino acids -ADE, -URA, -TRP, D-glucose and buffered to pH 4.5 using sodium citrate and citric acid monohydrate) and induced in SGCAA where galactose replaces D-glucose. EBY100 cells are grown at 30°C when cultured in SDCAA, or at 20°C when cultured in SGCAA at atmospheric CO2 in an orbital shaker set to an agitation speed of 250 rpm.

The term Kd denotes the constant that tells how readily two partners part at equilibrium. Lower therefore signals a tighter complex. Broadly, the EC50 is the concentration that produces a half-maximal response.

Where no end group is shown, it is not given here.

For the sequence LMFKGPHAVQAVG [Fat7], the equilibrium dissociation constant (Kd) on vTreg53 (Fat) TCR worked out at 34.7 µM. Further, in the assay with vTreg53 (Fat) TCR (SPR), the “koff” value is “fast kon and koff”; the “kon” value was “fast kon”. Moreover, the “CD69 up-regulation” value in assay [1] (overnight stimulation, screen at 100 µM) is recorded as “able to up-regulate CD69 expression”.

Consider TMYKNLRPWAATG [Fat2564], for which the dissociation constant (Kd) at vTreg53 (Fat) TCR was 0.347 µM. Besides, in the assay on vTreg53 (Fat) TCR (SPR), the “affinity” value is recorded as “highest affinity” and the “koff” value is “slowest koff”. In assay [1], the “CD25 Emax, fold increase over Fat15” value is 8.7 fold; the “CD69 Emax, fold increase over Fat15” value was ~5 fold; the 50% effective concentration (EC50) amounted to 8.9 µM.

For TMYKNPRPMAATG [Fat1562], in the assay with vTreg53 (Fat) TCR (SPR), the “affinity” value is “highest affinity” and the “koff” value is reported as “slowest koff”. In addition, in assay [1], the “CD25 Emax, fold increase over Fat15” value stood at 4.1 fold; the “CD69 Emax, fold increase over Fat15” value was ~ 3 fold; the response was half-maximal at 14.3 µM (EC50).
